US7863242B2, “Compositions for down-regulation of CCR5 expression and methods of use thereof” (priority 2003, dated 2011)

Experiments:
CCR5 = CCR5 surface expression on CD4 and CD8 T lymphocytes in IL-2 cultured PBMCs (flow cytometry, mAb 182); format: cell-based, human; settings: days 7 and 10, five donors tested
Method: CCR5 surface expression was measured on PBMCs cultured in the presence of IL-2 for 7-10 days.

CCR5 mRNA = assay: Semiquantitative RT-PCR of CCR5 transcripts in PBMC cultures; format: cell-based, human; settings: PBMCs cultured with IL-2 and drug for 7 days
Method: PCR Methodologies: Amplification of CCR5 and β-chemokine RNA sequences was performed by RT-PCR as described (Baba, 1996; Levine, 1996).

HIV-1 ADA [1] = assay: microbe, parasite or virus in culture; settings: for reduction of p24 levels: day 7 after infection
Method: Infectivity Assays: The following viruses were used in infection experiments: HIV-1 IIIb, HIV-1 ADA, HIV-1 BaL, HIV-1 JRFL, HIV-1 JRCSF, and HIV-1 SF162. HIV-1 IIIb is a T cell line-adapted lab strain that uses CXCR4 for entry into cells, whereas the rest are isolates that use CCR5. Viruses were obtained from the National Institutes of Health AIDS Research and Reference Reagent Program.
For infection of PBMCs, fresh donor PBMCs were cultured for 7 days in medium containing IL-2. On day 7, cells were exposed to the virus for 3 h. Nonadsorbed virus was removed by washing cells with PBS three times. Infected cells were cultured in IL-2 medium. Infection of MDMs was carried out as described before (Perno, 1993). Unless otherwise indicated, PBMCs were infected by using an moi of 0.001, and MDM were infected by using an moi of 0.002. Virus growth was monitored in culture supernatants by measuring p24 antigen levels by ELISA (NEN) or by measuring viral RT activity in an RT assay (Willey, 1988).
Antiviral Activity of RAPA in PBMCs: The antiviral activity of RAPA was assayed in PBMCs that had been cultured in the presence of RAPA for 7 days before infection. Cells were infected with the X4 HIV-1 IIIb and the R5 HIV-1 ADA strains. Infected cells were cultured in the presence of RAPA (same concentration as during pretreatment) for 7 additional days, during which time virus replication and cell viability were measured.
To test this hypothesis, donor PBMCs were cultured in IL-2 medium in the absence or presence of RAPA (1, 10, and 100 nM). […] Infected cells were cultured in the presence of RAPA (same concentration as during pretreatment) plus 0.1 nM TAK-779. Virus production was determined 7 days after infection.
Donor PBMCs were cultured in IL-2 medium in the absence or presence of HU (0 and 10 uM). After 7 days, cells were infected with HIV-1 ADA. Infected cells were cultured in the presence of HU (same concentration as during pretreatment) plus different concentration of TAK-779 ranging from 0, 2 and 20 nM). Virus production was determined 7 days after infection.
In order to determine the nature and degree of interaction between RAPA and T20, infectivity assays were performed in the presence of the drugs, alone and in combination. The infectivity assays were performed using PBMCs from healthy donors. PBMCs were cultured for 7 days in the presence of IL-2 (100 U/ml) in the presence or absence of RAPA. On day 7, cells were infected by exposure to the R5 strain HIV-1 ADA (m.o.i of 0.001) for 2 h. Non-adsorbed virus was removed by 3 washes with PBS. Infected cells were then plated in RPMI-10 supplemented with IL-2 (100 U/ml) in the presence of different concentrations of RAPA and T20. Each drug concentration was tested in triplicate. Medium was changed in day 3 after infection and drugs were added at the same concentration as before. On day 7 after infection, virus production was measured in the culture supernatants using a commercial p24 antigen ELISA (NCI, Frederick). Cell viability was determined using the MTT assay (Roche).
The antiviral data was then analyzed for synergy using two different methodologies, the Median Effect principle and Three Dimensional modeling.

human lymphocytes = assay: Cell cycle analysis of activated PBMCs (propidium iodide, flow cytometry); format: cell-based; settings: 4 μM, 24 hours, PBMCs from 2 normal donors
Method: Indirubin-3′-monoxime (IM) arrests human lymphocytes in G1 phase. PBMCs from 2 normal donors were activated in absence and presence of 4 μM Indirubin-3′-momoxime (IM) for 24 hours. Cells were then fixed with 70% Ethanol, stained with Propidium Iodide, and analyzed by Flow cytometry. Percentages of cells in each phase of the cell cycle are shown.

HIV-1 ADA [2] = assay: Serial passage of HIV-1 ADA in PBMCs, emergence of T20 resistance (RT assay); format: cell-based
Method: HIV-1 ADA was passaged in PBMCs 21 times in the presence of RAPA, T-20 or RAPA+T20. After every passage, virus content in the culture supernatant was measured using the RT assay.
HIV-1 replication in the presence of T20 leads to the emergence of drug resistant strains in vitro and in vivo, and this resistance is associated with mutations in the aa 36-45 of gp 41. […] To this end, HIV-1 ADA was passaged weekly for 24 weeks in the presence of RAPA, T20 and RAPA/T20 combined.

NC(=O)NO [HU, hydroxyurea]
concentrations that down-regulated CCR5 surface expression on CD4 lymphocytes (CCR5): ≥ 50 µM
CCR5 transcripts (semiquantitative RT-PCR) (CCR5 mRNA): decreased amounts of CCR5 transcripts
reduction of p24 levels (HIV-1 ADA [1]; 10 uM of HU alone): approximately 60%

Cc1ccc(-c2ccc3c(c2)C=C(C(=O)Nc2ccc(C[N+](C)(C)C4CCOCC4)cc2)CCC3)cc1.[Cl-] [TAK-779, N,N-dimethyl-N-[4-[[[2-(4-methylphenyl)-6,7-dihydro-5H-benzocyclohepten-8-yl]carbonyl]amino]benzyl]tetrahydro-2H-pyran-4-aminium chloride]
reduction of p24 levels (HIV-1 ADA [1]; 2 nM of TAK-779 alone): about 20%
inhibition at 0.0001 µM (HIV-1 ADA [1]; Human immunodeficiency virus 1, PBMC, 168 h, read-out: inhibition of virus replication): 21%

Indirubin-3′-monoxime
percentage of cells in G1 phase versus untreated control (human lymphocytes): the % of cells in G1 increases

enfuvirtide
Fa (fractional inhibition) (HIV-1 ADA [1]; T-20 1.5 nM alone, p24 day 7): 0.210
Fa (fractional inhibition) (HIV-1 ADA [1]; T-20 3.12 nM alone, p24 day 7): 0.260
Fa (fractional inhibition) (HIV-1 ADA [1]; T-20 6.25 nM alone, p24 day 7): 0.400
Fa (fractional inhibition) (HIV-1 ADA [1]; T-20 12.5 nM alone, p24 day 7): 0.600
Fa (fractional inhibition) (HIV-1 ADA [1]; T-20 25 nM alone, p24 day 7): 0.810
Fa (fractional inhibition) (HIV-1 ADA [1]; T-20 50 nM alone, p24 day 7): 0.980
IC50 (HIV-1 ADA [1]; read-out: Dm (dose at 50% inhibition, equivalent to IC50 value), drug used alone, p24 day 7): 6.16 nM
antiviral activity on passaged virus (HIV-1 ADA [2]; T20 100 nM, from the 11th passage onwards): did not exert antiviral activity
sensitivity of passaged virus to T20 (HIV-1 ADA [2]; T20 alone, 10th passage): reduced sensitivity to T20
inhibition of virus replication (HIV-1 ADA [2]; T20 alone, initial 9 passages): > 75%
